Measured values published in article PMC9795544, “Identifying Novel Inhibitors for Hepatic Organic Anion Transporting Polypeptides by Machine Learning-Based Virtual Screening” (Journal of Chemical Information and Modeling, 2022).
pIC50: −log10 of the molar value. Where two headings read alike, the source gives them in different places.

Key:
OATP1B3 = target: T1, OATP1B3 (Homo sapiens, UniProt Q9NPD5); assay: Pyranine transport inhibition in A431 cells overexpressing OATP1B3; assay type: cell-based; conditions: for IC50: read-out: IC50 (μM) OATP1B3
T1 construct: expressed in transfected cells; host or cells: A431 cells
T1 sequence (Q9NPD5 1-702): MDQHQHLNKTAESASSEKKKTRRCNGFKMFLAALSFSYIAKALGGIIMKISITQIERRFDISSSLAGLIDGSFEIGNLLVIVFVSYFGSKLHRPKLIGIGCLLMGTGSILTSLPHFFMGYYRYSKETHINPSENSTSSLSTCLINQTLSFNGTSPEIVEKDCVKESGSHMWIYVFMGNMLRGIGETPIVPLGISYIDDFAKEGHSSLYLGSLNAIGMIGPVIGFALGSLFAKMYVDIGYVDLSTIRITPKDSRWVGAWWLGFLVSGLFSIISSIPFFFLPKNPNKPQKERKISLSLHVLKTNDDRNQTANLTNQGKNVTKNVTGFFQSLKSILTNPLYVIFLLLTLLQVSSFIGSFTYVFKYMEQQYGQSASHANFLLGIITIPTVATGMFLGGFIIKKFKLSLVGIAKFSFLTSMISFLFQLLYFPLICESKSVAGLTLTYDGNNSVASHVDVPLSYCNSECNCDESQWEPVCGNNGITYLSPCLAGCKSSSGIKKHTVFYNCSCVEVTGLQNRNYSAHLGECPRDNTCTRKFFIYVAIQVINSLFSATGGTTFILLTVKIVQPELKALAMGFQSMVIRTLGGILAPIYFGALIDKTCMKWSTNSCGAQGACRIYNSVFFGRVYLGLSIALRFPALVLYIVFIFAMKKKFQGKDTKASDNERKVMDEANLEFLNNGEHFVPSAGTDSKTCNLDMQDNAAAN
Procedure: (§1) A431 cells overexpressing OATP1B1, OATP1B3, or OATP2B1 or their mock transfected controls were generated previously[30] and maintained in Dulbecco’s modified Eagle medium (DMEM, Gibco, Thermofisher Scientific, Waltham, MA, US) supplemented with 10% fetal bovine serum, 2 mM L-glutamine, 100 units/mL penicillin, and 100 μg/mL streptomycin. Expression and function of OATPs in the cell lines were checked regularly.
(§2) Interaction with OATP1B1, OATP1B3, or OATP2B1 was tested in an indirect transport assay using pyranine (8-hydroxypyrene-1,3,6-trisulfonic acid trisodium salt, H1529, Sigma, Merck, Budapest, Hungary) as the test substrate[31],[32] A431 cells overexpressing OATP1B1, OATP1B3, or OATP2B1 or their mock transfected controls were seeded on 96-well plates in a density of 8 × 10^4 cells per well in 200 μL of cell culture medium 1 day prior to the transport measurements. […] The transport reaction was started by the addition of 50 μL of uptake buffer containing pyranine in a final concentration of 10 μM (OATP1B1) or 20 μM (OATP1B3 and OATP2B1), and the cells were further incubated at 37 °C for 15 min (OATP1B1 and OATP2B1) or 30 min (OATP1B3). The reaction was stopped by removing the supernatant. After repeated washing with ice-cold PBS, fluorescence was determined in an Enspire plate reader (PerkinElmer, Waltham, MA) with excitation/emission wavelengths of 460/510 nm. OATP-dependent transport was calculated by extracting fluorescence measured in mock transfected cells and normalized to the fluorescence signal obtained in the absence of the tested compounds (100%). Experiments were repeated in at least three biological replicates.

OATP1B1 [1] = target: T2, OATP1B1 (Homo sapiens, UniProt Q9Y6L6); assay: Pyranine transport inhibition in A431 cells overexpressing OATP1B1; assay type: cell-based
T2 construct: expressed in transfected cells; host or cells: A431 cells
T2 sequence (Q9Y6L6 1-691): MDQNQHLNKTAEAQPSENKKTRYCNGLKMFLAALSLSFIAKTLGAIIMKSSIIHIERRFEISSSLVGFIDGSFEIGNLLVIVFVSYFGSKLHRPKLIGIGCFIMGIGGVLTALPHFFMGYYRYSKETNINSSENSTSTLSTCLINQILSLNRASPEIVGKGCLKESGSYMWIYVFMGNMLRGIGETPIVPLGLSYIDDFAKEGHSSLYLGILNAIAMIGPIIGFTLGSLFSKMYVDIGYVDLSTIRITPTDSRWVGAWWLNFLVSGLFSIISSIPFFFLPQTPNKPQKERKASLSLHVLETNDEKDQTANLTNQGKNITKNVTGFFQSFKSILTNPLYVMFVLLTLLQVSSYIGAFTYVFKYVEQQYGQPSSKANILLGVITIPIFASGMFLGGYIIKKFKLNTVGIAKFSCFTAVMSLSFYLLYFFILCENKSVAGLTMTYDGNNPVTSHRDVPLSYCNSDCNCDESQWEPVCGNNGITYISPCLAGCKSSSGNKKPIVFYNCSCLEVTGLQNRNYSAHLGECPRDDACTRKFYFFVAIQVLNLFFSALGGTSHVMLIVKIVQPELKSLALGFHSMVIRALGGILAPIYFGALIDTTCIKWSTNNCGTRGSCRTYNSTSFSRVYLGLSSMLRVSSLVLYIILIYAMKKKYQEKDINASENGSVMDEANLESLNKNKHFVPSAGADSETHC
Procedure: as §1, §2

OATP2B1 [2] = target: T3, OATP2B1 (Homo sapiens, UniProt O94956); assay: Pyranine transport inhibition in A431 cells overexpressing OATP2B1; assay type: cell-based; conditions: for IC50: read-out: IC50 (μM) OATP2B1
T3 construct: expressed in transfected cells; host or cells: A431 cells
T3 sequence (O94956 1-709): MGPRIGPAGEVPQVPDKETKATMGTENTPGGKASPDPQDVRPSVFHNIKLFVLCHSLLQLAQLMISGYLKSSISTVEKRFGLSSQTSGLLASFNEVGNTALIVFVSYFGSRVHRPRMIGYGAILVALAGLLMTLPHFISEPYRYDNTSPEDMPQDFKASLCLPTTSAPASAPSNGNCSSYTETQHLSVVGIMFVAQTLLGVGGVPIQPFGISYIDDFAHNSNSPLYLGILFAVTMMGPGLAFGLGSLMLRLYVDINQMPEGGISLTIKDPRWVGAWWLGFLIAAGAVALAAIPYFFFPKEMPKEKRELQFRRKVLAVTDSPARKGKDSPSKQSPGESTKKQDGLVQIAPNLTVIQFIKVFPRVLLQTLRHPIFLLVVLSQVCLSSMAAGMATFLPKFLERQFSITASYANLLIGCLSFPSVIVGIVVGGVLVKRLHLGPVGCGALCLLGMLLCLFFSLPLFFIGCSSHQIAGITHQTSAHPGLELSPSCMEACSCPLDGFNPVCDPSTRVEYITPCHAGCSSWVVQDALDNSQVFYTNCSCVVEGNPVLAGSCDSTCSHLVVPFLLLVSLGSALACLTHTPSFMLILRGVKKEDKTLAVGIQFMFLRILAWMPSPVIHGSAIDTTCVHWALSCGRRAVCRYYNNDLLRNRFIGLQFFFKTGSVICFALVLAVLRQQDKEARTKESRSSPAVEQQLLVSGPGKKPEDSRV
Procedure: as §1, §2

OATP2B1 [3] = system: OATP2B1; parameters: method as in earlier work; conditions: ref 1 (Karlgren et al.); cited from earlier work
OATP2B1 [4] = system: OATP2B1; parameters: method as in PMID 33932771; conditions: highest affinity inhibitor reported in the literature; cited from earlier work
OATP1B1 [5] = system: OATP1B1; parameters: method as in earlier work; conditions: ref 1 (Karlgren et al.); cited from earlier work
[6] = full dose-response curve, eight concentrations, Hill1 fit
[7] = initial three-point screen (1, 10, 100 μM), category by concentration needed for 50% inhibition, pyranine 20 μM, 30 min, pH 5.5
[8] = initial three-point screen (1, 10, 100 μM), category by concentration needed for 50% inhibition, pyranine 10 μM, 15 min, pH 5.5
[9] = initial three-point screen (1, 10, 100 μM), category by concentration needed for 50% inhibition, pyranine 20 μM, 15 min, pH 5.5
[10] = initial three-point screen (1, 10, 100 μM), category by concentration needed for 50% inhibition, pyranine 10 μM, 15 min, pH 5.5, read-out: IC50 (μM) OATP1B1

Q: Which results are given for `CCC(C)c1ccc(-n2c(SCC(=O)N3c4ccccc4CC3C)nc3ccccc3c2=O)cc1` (stereo not shown) [G4, CCC(C)c1ccc(cc1)N2C(=Nc3ccccc3C2=O)SCC(=O)N4C(C)Cc5ccccc45]?
A: IC50 (μM) OATP1B3 (OATP1B3; [6]): no effect; IC50 (μM) OATP1B3 (OATP1B3; [7]): no effect; IC50 (μM) OATP1B1 (OATP1B1 [1]; [6]): no effect; IC50 (μM) OATP1B1 (OATP1B1 [1]; [8]): no effect; IC50 (OATP2B1 [2]; [6]): ~6 µM; IC50 (OATP2B1 [2]; [9]): 1 to 10 µM

Q: With `COc1cc2c(cc1NC(=O)CN1C(=O)NC(Cc3c[nH]c4ccccc34)C1=O)oc1ccccc12` (stereo not shown) [G5, COc1cc2c(oc3ccccc23)cc1NC(=O)CN4C(=O)NC(Cc5c[nH]c6ccccc56)C4=O] as the molecule, how does the IC50 (OATP1B3; [7]) read?
A: The IC50 was 1 to 10 µM.

Q: What about the IC50 (OATP1B1 [1]; [10]) of the same molecule?
A: Its IC50 is > 10 µM.

Q: And the IC50 (OATP2B1 [2]; [9])?
A: Its IC50 is 1 to 10 µM.

Q: With `Cc1ccc(N2C(=O)/C(=C\Nc3nc4ccccc4nc3N3CCCC3)c3ccccc3C2=O)c(C)c1` [G6, Cc1ccc(N2C(=O)\C(=C/Nc3nc4ccccc4nc3N5CCCC5)\c6ccccc6C2=O)c(C)c1] as the molecule, how does the “IC50 (μM) OATP1B3” value (OATP1B3; [7]) read?
A: The value was “no effect”.

Q: What about the “IC50 (μM) OATP1B1” value (OATP1B1 [1]; [8]) of the same molecule?
A: The value was “no effect”.

Q: And the IC50 (OATP2B1 [2]; [9])?
A: The IC50 was > 10 µM.

Q: With `O=C(/C=C/c1cn(Cc2ccccc2)nn1)N1CCCC(c2nc3ccccc3s2)C1` (stereo not shown) [H2, O=C(\C=C\c1cn(Cc2ccccc2)nn1)N3CCCC(C3)c4nc5ccccc5s4] as the molecule, how does the IC50 (OATP1B3; [7]) read?
A: The IC50 was > 10 µM.

Q: What about the IC50 (OATP1B1 [1]; [10]) of the same molecule?
A: Its IC50 is > 10 µM.

Q: What about the IC50 (OATP2B1 [2]; [9]) of the same molecule?
A: The IC50 was 1 to 10 µM.

Q: Which results are given for `Cc1cc(C)c(C(=O)CSc2nc3ccccc3c(=O)n2Cc2ccc(F)cc2)c(C)c1` [H4, Cc1cc(C)c(C(=O)CSC2=Nc3ccccc3C(=O)N2Cc4ccc(F)cc4)c(C)c1]?
A: IC50 (μM) OATP1B3 (OATP1B3; [7]): no effect; IC50 (μM) OATP1B1 (OATP1B1 [1]; [8]): no effect; IC50 (μM) OATP2B1 (OATP2B1 [2]; [9]): no effect

Q: What does the source list for `COC(=O)c1c(NC(=O)CN2C(=O)NC3(CCc4ccccc4C3)C2=O)sc2c1CCCCC2` (stereo not shown) [H5, COC(=O)c1c2CCCCCc2sc1NC(=O)CN3C(=O)NC4(CCc5ccccc5C4)C3=O]?
A: IC50 (OATP1B3; [6]): 6.95 µM; IC50 at 30 min (OATP1B3; human, pH 5.5, probe pyranine 20 μM, initial three-point screen (1, 10, 100 μM), category by concentration needed for 50% inhibition, pyranine 20 μM, 30 min, pH 5.5): > 10 µM; fold lower affinity on OATP1B3 than on OATP2B1 (OATP1B3; ratio of IC50 OATP1B3 / OATP2B1): 18 fold; IC50 (OATP1B1 [1]; full dose-response curve, eight concentrations, Hill1 fit, read-out: IC50 (μM) OATP1B1): ~25 µM; IC50 at 15 min (OATP1B1 [1]; human, pH 5.5, probe pyranine 10 μM, initial three-point screen (1, 10, 100 μM), category by concentration needed for 50% inhibition, pyranine 10 μM, 15 min, pH 5.5, read-out: IC50 (μM) OATP1B1): > 10 µM; IC50 (OATP2B1 [2]; [6]): 0.39 µM; IC50 (OATP2B1 [2]; [9]): < 1 µM

Q: Which results are given for `CC(=O)Nc1ccc(S(=O)(=O)Nc2nc3ccccc3nc2NCc2ccccc2)cc1` [H6, CC(=O)Nc1ccc(cc1)S(=O)(=O)Nc2nc3ccccc3nc2NCc4ccccc4]?
A: IC50 (μM) OATP1B3 (OATP1B3; [7]): no effect; IC50 (μM) OATP1B1 (OATP1B1 [1]; [8]): no effect; IC50 (OATP2B1 [2]; [9]): > 10 µM

Q: With `C#Cc1cccc(Nc2ncnc3cc(OCCOC)c(OCCOC)cc23)c1` [erlotinib] as the molecule, how does the pIC50 (OATP2B1 [3]) read?
A: Its pIC50 is 6.26.

Q: With `C[C@]12CC[C@@H]3c4cc(P(=O)(O)O)ccc4CC[C@H]3[C@@H]1CCC2=O` [estra-1,3,5(10)-trien-17-on-2-ylphosphonate] as the molecule, how does the pIC50 (OATP2B1 [4]) read?
A: Its pIC50 is 7.39.

Q: With `CC[C@H](C)C(=O)O[C@H]1C[C@H](O)C=C2C=C[C@H](C)[C@H](CC[C@@H](O)C[C@@H](O)CC(=O)O)[C@H]21` [pravastatin] as the molecule, how does the pIC50 (OATP1B1 [5]) read?
A: Its pIC50 is 5.44.
